The record followed here is patent EP4282435A1, “FORMULATIONS OF ACTIVE PHARMACEUTICAL INGREDIENTS AND EXCIPIENTS IN ICELLS VIA HYDROPHOBIC ION PAIRING” (Danmarks Tekniske Universitet, priority 2022, dated 2023).

SMILES strings stand for the structures. Like-named read-outs stand apart in the source and are kept apart here.

How the values of series [1] were obtained: After removing the supernatant, the complex was dissolved in methanol, transferred to a new glass vial and the solvent was dried under a gentle nitrogen flow. […] The chloroform phase was isolated, transferred to a new vial and subsequently chloroform was dried under a gentle flow of nitrogen.
The nature of series [2]: HIP complexation of gentamicin (HPLC-ELSD of supernatant or aqueous phase). The series is classed as physicochemical. To be noted: Bligh-Dyer method, 1:1 charge ratio; gentamicin not detected in aqueous phase. The method, then:
HIP complexation via organic-solvent free method: […] A white precipitate was obtained, which corresponded to the HIP complex. The supernatant was removed and its gentamicin content was evaluated by HPLC. […] A sample of the aqueous phase was taken to evaluate its gentamicin content by HPLC. HPLC method: Samples were analyzed on a Shimadzu Nexera-i with an evaporative light scattering detector (ELSD). Samples were injected (5 µL) onto a Waters Terra XBridge BEH C8 column (5 µm, 4.6x150mm, temperature 25 °C) at a flow rate of 1 mL/min.

Series [3] is described as follows: Solubility and stability of ICG HIP complex in different solvents (HPLC). The format is physicochemical. To be noted: native non-complexed ICG in water, 5 days at 25°C in the dark, HPLC 280 nm. The method, then: (§1) Chloroform was dried under a gentle flow of nitrogen.
HPLC analysis: Samples were analyzed on a Shimadzu Nexera-X HPLC. […] The solvent system consisted of mobile phase A (5% MeCN, 0.1% TFA in water) and mobile phase B (0.1% TFA in MeCN). The gradient was 0% B for 1 min, 0 to 100% B in 5 min, 100% B for 4 min, 100% B to 0% B in 0.5 min, 0% B for 1 min. UV detection at 280 nm was used to measure the AUC of ICG and its related degradation products.

The nature of series [4]: Solubility of ICG HIP complexes in ICell (visual). The procedure: (§2) For each co-ion, the chloroform phase was isolated and transferred to new glass vials. Chloroform was dried under a gentle flow of nitrogen.
(§3) 1 g of ICell was added to each vial containing the previously isolated ICG HIP complexes. In addition, 1 g of ICell was added to a vial containing 2.5 mg of native ICG.

Series [5] is described as follows: HIP complexation of ICG by method 3 (Bligh-Dyer), judged by colour of the phases. The series is classed as physicochemical. The conditions noted are these: co-ion:ICG 1:1 molar ratio. The method, then: HIP method 3 (Bligh-Dyer method): ICG (5 mg/mL) was dissolved in a 0.01 M HCI solution. Benethamine, dodecylamine, CTAB and tetraethyl ammonium bromide were used as co-ions. Each co-ion was dissolved in methanol in a 1:1 molar ratio to ICG. In an 8-mL glass vial, 1 mL of chloroform, 2 mL of co-ion solution (methanol), and 1 mL of ICG solution (water) were added in that order (methanol without co-ions was used as a control). The vials was gently shaken (i.e., slowly turned over 2-3 times) and incubated for 45 min at room temperature in the dark. Then 1 mL of water was added followed by 1 mL of chloroform. The vial was gently shaken again and incubated for 45 min at room temperature in the dark. The resulting HIP complex is present in the lower organic phase.
DB36 and ICG are negatively charged molecules, which are very soluble in water, but not in organic solvents such as chloroform. All the used co-ions have a positive charge and they could form hydrophobic ion pairing (HIP) complexes with either DB36 or ICG. When solubilized, DB36 and ICG form dark blue or green solutions, respectively. Thus, successful HIP complexation was assessed by either observing precipitates (for method 1) or a change in coloration in the chloroform phase (for methods 2 and 3). […]

Series [6] in a line: Stability of ICG HIP complexes in ICell (HPLC). The format is physicochemical. To be noted: ICG complexed with the named co-ion in SuBen:GTO:EtOH (60:25:15) ICell, 7 weeks in the dark at room temperature, percentage AUC of ICG at 280 nm. The procedure: as §2, §3
Stability study: After preparation, ICells were stored at room temperature and protected from light. After 7 weeks, approximately 25 µL of each formulation were taken and dissolved in 500 µL of acetonitrile. The samples were then analyzed by HPLC. HPLC analysis: Samples were analyzed on a Shimadzu Nexera-X HPLC. Samples were injected (5 µL) onto a Waters Terra XBridge BEH C18 column (2.5 µm, 4.6x75mm, temperature 25 °C) at a flow rate of 1 mL/min. The solvent system consisted of mobile phase A (5% MeCN, 0.1% TFA in water) and mobile phase B (0.1% TFA in MeCN). The gradient was 0% B for 1 min, 0 to 100% B in 5 min, 100% B for 4 min, 100% B to 0% B in 0.5 min, 0% B for 1 min. UV detection at 280 nm was used to measure the AUC of ICG and its related degradation products.

The next series has as its system S. aureus strain S54F9. As to the kind of experiment: Microbiological assay, Disc Diffusion Assay. The series is classed as cell-based, Staphylococcus aureus. To be noted: 24 hours at 37 °C. The procedure: Then, 3 wells were carved out with the use of the broad side of an autoclaved 1 ml pipette tip.
This setup was repeated for three experimental replicates. Each plate was incubated for 24 hours at 37 °C, before inspection.
Then, 3 wells were carved out with the use of the broad side of an autoclaved 1 ml pipette tip. In one well, 0.5 mg linoleic acid was injected as 90 µl 0.22 µm-sterile-filtered dimethyl sulfoxide. In a second well, 90 µl autoclaved phosphate-buffered saline with 0.5 mg vancomycin hydrochloride was injected. […] The plate was incubated for 24 hours at 37 °C, before inspection.

Series [7] in a line: HIP complexation efficacy of clindamycin (UHPLC of organic phase). The series is classed as physicochemical. To be noted: percentage of clindamycin complexed with the named co-ion, 1:1 charge ratio. The method, then:
HIP complexation via Bligh-Dyer method: […] Moreover, chloroform and methanol were mixed before the addition of the aqueous clindamycin solution. […] The dried complex was re-suspended in methanol and analyzed by UHPLC to determine the amount of clindamycin. HIP complexation via modified Bligh-Dyer method: […] Next, 4 mL of chloroform were added and the resulting monophase was shaken at 400 rpm at room temperature for 30 min. 4 mL of chloroform followed by 4 mL of water were added to form a biphasic system. Isolation and analysis of the dried complex was done as described beforehand for the Bligh-Dyer method. UHPLC method: Samples were analyzed on a Shimadzu Nexera-X with a PDA detector. Samples were injected (5 μL) onto a Waters Terra XBridge BEH C8 column (2.5 μm, 4.6x75mm, temperature 25 °C) at a flow rate of 1 mL/min.

The text on series [8]: The chloroform phase was isolated, transferred to a new vial and subsequently chloroform was dried under a gentle flow of nitrogen.
This is another data set of the same source.

Series [9] in a line: In vitro release of clindamycin-HIP complexes from ICell into PBS. The series is classed as in vitro ADME. The conditions noted are these: clindamycin or its HIP complex with the named co-ion, SuBen:GTH:EtOH (60:20:20) ICell, 20 mg/g, PBS 37°C, after 8 days, mean (n=2). The procedure: ICell formulation: […] […] In vitro release: 50 μL of each ICell were individually injected in 8-mL glass vials containing 2 mL PBS, for which the exact amount of injected ICell was weighed. The vials were incubated at 37 °C and at each sampling point 1 mL of PBS was taken. 1 mL of fresh buffer was added immediately to the vial to replace the taken sample. The samples were then analyzed by HPLC and the concentration of drug in the release media was calculated. UHPLC method: HPLC analyses were done using a Shimadzu Nexera-X UHPLC instrument with a PDA detector. The samples were injected (40 μL) onto a Waters Terra BEH C8 column (2.5μm, 4.6x75mm, temperature 25°C) at a flow rate of 0.8 mL/min.

A short description of series [10]: Effect of co-ions on surface tension of ICell (visual appearance of injected depots). The format is physicochemical. The conditions noted are these: co-ion alone (2 mM or 10 mM, no ICG) in SuBen:GTH:DMSO or SuBen:GTO:EtOH ICell, in PBS, 7 days at 37°C. The procedure: ICell formulation: A SuBen:GTH:DMSO (60:20:20), SuBen:GTH:DMSO (60:20:15) and a SuBen:GTO:EtOH (60:25:10) ICell were prepared as described in example 4. Effect on surface tension without ICG: TOAB was dissolved in DMSO and EtOH to produce solutions with a concentration of […]. CTAB was dissolved in EtOH to produce solutions with a concentration of […]. 0.03 g of each co-ion solution were individually added to 0.57 g of either a SuBen:GTH:DMSO (60:20:15) or a SuBen:GTO:EtOH (60:25:10) ICell. Thus, the final co-ion concentration in each ICell was 2mM or 10 mM. 50 µL of the previously prepared ICells were injected in glass vials containing 2 mL PBS. The vials were incubated at 37°C during 7 days and the visual appearance of the injected depots was evaluated.
as §1
Effect on surface tension with ICG: SuBen:GTH:DMSO (60:20:20) ICell was proportionally added to the previously isolated ICG HIP complexes to obtain formulations with a final ICG concentration of either 0.1 or 2.5 mg/g as described in Table 4. 50 µL of these ICells were injected in glass vials containing 2 mL PBS. The vials were incubated at 37°C during 3 days and the visual appearance of the injected depots was evaluated.

Series [11] in a line: HIP complexation of SIINFEKL with SDS (HPLC of supernatant). The series is classed as physicochemical. The method, then: (1.5 mg/mL) was dissolved in 0.01 M HCI. […] The […] and co-ion solution were mixed in equal volumes, followed by shaking and centrifugation steps as described in method 1 of example 2. The supernatant was removed the content of […] was evaluated by HPLC.
HPLC method: Samples were analyzed on a Shimadzu Nexera-X with PDA. Samples were injected (40 µL) onto a Waters Terra XBridge BEH C8 column (2.5 µm, 4.6x150mm, temperature 25 °C) at a flow rate of 1 mL/min. The solvent system consisted of mobile phase A (5% MeCN, 0.1% TFA in water) and mobile phase B (0.1% TFA in MeCN). The gradient was 0% B for 1.5 min, 0 to 100% B in 7 min, 100% B for 1.5 min, 100% B to 0% B in 0.5 min, 0% B for 1.5 min. […] was quantified by UV at 220 nm.

Where [12] appears, read: ICG or its HIP complex with the named co-ion in SuBen:GTO:EtOH (60:25:15) ICell, about 2.5 mg ICG per 1 g ICell, visual.

For `CCCCC(CC)COC(=O)CC(C(=O)OCC(CC)CCCC)S(=O)(=O)O` (stereo not shown) [Sodium docusate], in series [1], the “solubility in ICell” value is listed as “easily solubilized”. For the same compound, the gentamicin complexed in series [2] worked out at 100%.

As to `CC1(C)C(/C=C/C=C/C=C/C=C2\N(CCCCS(=O)(=O)O)c3ccc4ccccc4c3C2(C)C)=[N+](CCCCS(=O)(=O)[O-])c2ccc3ccccc3c21` [ICG, indocyanine green, reference compound], the stability result in series [3] was “no longer visible in the chromatogram”. The “solubility in ICell” value in series [4] (setting [12]) is “not soluble”.

Take `CCCCCCCCCCCCN` [Dodecylamine]: in series [5], the ICG complexed is on record as ~100%. The “ICG % AUC” value in series [6] is recorded as 95.3%. In addition, the “solubility in ICell” value in series [4] is reported as “easily solubilized”.

On to `CC(=O)NC[C@H]1CN(c2ccc(N3CCOCC3)c(F)c2)C(=O)O1` [linezolid, Linezolid], for which, in the series on S. aureus strain S54F9 (Example 23, 50 µl ICell per well (gentamicin-docusate 20 mg/g, Linezolid 15 mg/g in SuBen:GTO:EtOH (60:25:15))), the “antimicrobial activity (clearing zone) after release from ICell” value is recorded as “clearing zone”.

As for `CCCCCCC/C=C\C(=O)O` [C2DA], in series [7], the “Complexation efficacy Bligh-Dyer method” value worked out at 80% and the “Complexation efficacy Modified Bligh-Dyer method” value came to 72%. Besides, the “solubility in ICell” value in series [8] (clindamycin or its HIP complex with the named co-ion, SuBen:GTH:EtOH (60:20:20) ICell, clindamycin 20 mg/g, visual) was “easily solubilized”.

On to `CCCCCCCC/C=C\CCCCCCCC(=O)[O-].[Na+]` [Sodium oleate], for which, in series [7], the “Complexation efficacy Bligh-Dyer method” value stood at 72% and the “Complexation efficacy Modified Bligh-Dyer method” value is 72%. Moreover, in series [9], the “release of clindamycin from the ICell” value is 96%.

Take `CCCCCCCCCCCCCCCC[N+](C)(C)C` [CTAB]: the ICG complexed in series [5] is recorded as ~100%. Besides, in series [6], the “ICG % AUC” value came to 97.6%. Besides, the “solubility in ICell” value in series [4] (setting [12]) was “easily solubilized”. The “visual appearance of injected ICell depots (surface tension)” value in [10] is listed as “had flatten”.

For the compound `CC[C@H](C)[C@H](NC(=O)[C@@H](NC(=O)[C@@H](N)CO)[C@@H](C)CC)C(=O)N[C@@H](CC(N)=O)C(=O)N[C@@H](Cc1ccccc1)C(=O)N[C@@H](CCC(=O)O)C(=O)N[C@@H](CCCCN)C(=O)N[C@@H](CC(C)C)C(=O)O` [HIP complex of SIINFEKL with SDS], the solubility in methanol entry in series [11] was “soluble”.

In the case of `CC[C@H](C)[C@H](NC(=O)[C@@H](NC(=O)[C@@H](N)CO)[C@@H](C)CC)C(=O)N[C@@H](CC(N)=O)C(=O)N[C@@H](Cc1ccccc1)C(=O)N[C@@H](CCC(=O)O)C(=O)N[C@@H](CCCCN)C(=O)N[C@@H](CC(C)C)C(=O)O` [SIINFEKL] [reference compound], the solubility in methanol result in [11] is given as “insoluble”.

In the case of `CCCCC/C=C\C/C=C\CCCCCCCC(=O)O` [Linoleic acid], in series [7], the “Complexation efficacy Bligh-Dyer method” value was found to be 64% and the “Complexation efficacy Modified Bligh-Dyer method” value is listed as 80%. In the series with S. aureus strain S54F9 (Example 24, wells: 0.5 mg linoleic acid in DMSO, 0.5 mg vancomycin hydrochloride, 45 µl HIP complex + 45 µl PBS), the “antimicrobial activity (clearance of S. aureus)” value was “has an antimicrobial effect, but to an extent lesser than vancomycin”. The “solubility in ICell” value in [8] is on record as “easily solubilized”.

For `CC[N+](CC)(CC)CC.[Br-]` [Tetraethyl ammonium bromide], the “ICG % AUC” value in [6] stood at 96.3%.
